# Laboratory results published in patent US6472418B1, “Non-peptide NK1 receptors antagonists” (Warner-Lambert Company, priority 1998, dated 2002).
# Target: T1, Human NK1 Receptor (Homo sapiens, UniProt P25103)
# T1 construct: endogenous in cells; host or cells: Human lymphoma IM9 cells (whole cells)
# Experiment: In Vitro Human NK1 Receptor Binding Assay ([125I]Bolton-Hunter substance P displacement, IM9 cells)
# Details: Human lymphoma IM9 cells, [125I]Bolton-Hunter substance P (0.05-0.1 nM), 50 min at 21° C.; Table 1; read-out: NK1 binding IC50
# Method in brief: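 Test compounds competed with 0.05-0.1 nM [125I]Bolton-Hunter substance P for binding to intact IM9 cells over 50 min at 21° C, pH 7.4 buffer with MnCl2 and peptidase inhibitors. […] [Sar9, Met(O2)11] substance P gave non-specific binding. Bound counts were measured after filtration and fitted iteratively.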
# T1 sequence (P25103 whole entry): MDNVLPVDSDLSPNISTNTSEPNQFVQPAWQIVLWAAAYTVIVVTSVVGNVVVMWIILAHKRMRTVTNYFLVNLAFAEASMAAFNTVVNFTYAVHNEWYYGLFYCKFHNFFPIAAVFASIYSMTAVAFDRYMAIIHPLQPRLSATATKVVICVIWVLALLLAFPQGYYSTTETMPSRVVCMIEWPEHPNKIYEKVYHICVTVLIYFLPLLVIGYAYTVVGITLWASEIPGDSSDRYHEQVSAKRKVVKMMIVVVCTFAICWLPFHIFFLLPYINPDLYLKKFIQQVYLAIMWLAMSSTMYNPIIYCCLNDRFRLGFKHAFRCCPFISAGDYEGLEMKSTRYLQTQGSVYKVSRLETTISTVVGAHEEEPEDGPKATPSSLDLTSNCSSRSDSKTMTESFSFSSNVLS
row,SMILES,IC50
1,"C[C@H](NC(=O)[C@@H](Cc1c[nH]c2ccccc12)NCc1cccc([N+](=O)[O-])c1)c1ccccc1 (relative stereo) [Example 15, 3-(1H-Indol-3-yl)-2-(3-nitro-benzylamino)-N-(1-phenyl-ethyl)-propionamide, [R-(R*,S*)]]",> 10000 nM

# Same assay, conditions: Human lymphoma IM9 cells, [125I]Bolton-Hunter substance P; Table 3, array-synthesis products; read-out: IC50 (nM) hNK1
row,SMILES,IC50
1,"CCC(NC(=O)C(Cc1c[nH]c2ccccc12)NCc1cc2ccccc2o1)c1ccccc1 (stereo not drawn) [Example 259, 2-[(Benzofuran-2-ylmethyl)-amino]-3-(1H-indol-3-yl)-N-(1-phenyl-propyl)-propionamide]",21 nM
2,"O=C(NC1CCc2ccccc21)C(Cc1c[nH]c2ccccc12)NCc1cc2ccccc2o1 (stereo not drawn) [Example 262, 2-[(Benzofuran-2-ylmethyl)-amino]-N-indan-1-yl-3-(1H-indol-3-yl)-propionamide]",86 nM
3,"O=C(NCc1ccc(F)c(Cl)c1)C(Cc1c[nH]c2ccccc12)NCc1cc2ccccc2o1 (stereo not drawn) [Example 229, 2-[(Benzofuran-2-ylmethyl)-amino]-N-(3-chloro-4-fluoro-benzyl)-3-(1H-indol-3-yl)-propionamide]",33 nM
4,"O=C(NCc1cc(F)cc(C(F)(F)F)c1)C(Cc1c[nH]c2ccccc12)NCc1cc2ccccc2o1 (stereo not drawn) [Example 303, 2-[(Benzofuran-2-ylmethyl)-amino]-N-(3-fluoro-5-trifluoromethyl-benzyl)-3-(1H-indol-3-yl)-propionamide]",17 nM

# More lines, now with the values ahead:
row,IC50,SMILES
1,58 nM,"CC(NC(=O)C(Cc1c[nH]c2ccccc12)NCc1cc2ccccc2o1)C1CCCCC1 (stereo not drawn) [Example 294, 2-[(Benzofuran-2-ylmethyl)-amino]-N-(1-cyclohexyl-ethyl)-3-(1H-indol-3-yl)-propionamide]"
2,31 nM,O=C(NCc1cccc(Br)c1)C(Cc1c[nH]c2ccccc12)NCc1cc2ccccc2o1 (stereo not drawn) [Example 219]
3,> 10000 nM,"O=C(NCCN1CCNCC1)C(Cc1c[nH]c2ccccc12)NCc1cc2ccccc2o1 (stereo not drawn) [Example 193, 2-[(Benzofuran-2-ylmethyl)-amino]-3-(1H-indol-3-yl)-N-(2-piperazin-1-yl-ethyl)-propionamide]"
4,243 nM,"O=C(NC1Cc2ccccc2C1)C(Cc1c[nH]c2ccccc12)NCc1cc2ccccc2o1 (stereo not drawn) [Example 239, 2-[(Benzofuran-2-ylmethyl)-amino]-N-indan-2-yl-3-(1H-indol-3-yl)-propionamide]"
5,6680 nM,"O=C(NCCc1c[nH]cn1)C(Cc1c[nH]c2ccccc12)NCc1cc2ccccc2o1 (stereo not drawn) [Example 206, 2-[(Benzofuran-2-ylmethyl)-amino]-N-[2-(1H-imidazol-4-yl)-ethyl]-3-(1H-indol-3-yl)-propionamide]"
6,130 nM,"COc1ccc(CNC(=O)C(Cc2c[nH]c3ccccc23)NCc2cc3ccccc3o2)cc1 (stereo not drawn) [Example 199, 2-[(Benzofuran-2-ylmethyl)-amino]-3-(1H-indol-3-yl)-N-(4-methoxy-benzyl)-propionamide]"
7,68 nM,"O=C(NCc1cc(F)ccc1F)C(Cc1c[nH]c2ccccc12)NCc1cc2ccccc2o1 (stereo not drawn) [Example 204, 2-[(Benzofuran-2-ylmethyl)-amino]-N-(2,5-difluoro-benzyl)-3-(1H-indol-3-yl)-propionamide]"
8,2200 nM,"O=C(NC(CO)CC1CCCCC1)C(Cc1c[nH]c2ccccc12)NCc1cc2ccccc2o1 (stereo not drawn) [Example 277, 2-[(Benzofuran-2-ylmethyl)-amino]-N-(2-cyclohexyl-1-hydroxymethyl-ethyl)-3-(1H-indol-3-yl)-propionamide]"

# Same assay, conditions: Table 4; [125I]Bolton-Hunter substance P displacement, human IM9 cells; read-out: IC50 (nM) hNK1
row,SMILES,IC50
1,"CC(NC(=O)C(C)(Cc1c[nH]c2ccccc12)NCc1ccc(C=Cc2ccccc2)o1)c1ccccc1 (stereo not drawn) [compound 325, 3-(1H-Indol-3-yl)-2-methyl-N-(1-phenyl-ethyl)-2-[(5-styryl-furan-2-ylmethyl)-amino]-propionamide]",72 nM
2,"CC(C)C=CCC1=CCC(CNC(C)(Cc2c[nH]c3ccccc23)C(=O)NC(C)c2ccccc2)CC1 (stereo not drawn) [compound 328, 3-(1H-Indol-3-yl)-2-methyl-2-{[4-(4-methyl-pent-2-enyl)-cyclohex-3-enylmethyl]-amino}-N-(1-phenyl-ethyl)-propionamide]",> 10000 nM

# Next, values leading:
row,IC50,SMILES
1,1730 nM,"CC(NC(=O)C(C)(Cc1c[nH]c2ccccc12)NCc1ccc2c(c1)Cc1ccccc1-2)c1ccccc1 (stereo not drawn) [compound 354, 2-[(9H-Fluoren-2-ylmethyl)-amino]-3-(1H-indol-3-yl)-2-methyl-N-(1-phenyl-ethyl)-propionamide]"
2,3710 nM,"CC(NC(=O)C(C)(Cc1c[nH]c2ccccc12)NCc1ccncc1)c1ccccc1 (stereo not drawn) [compound 359, 3-(1H-Indol-3-yl)-2-methyl-N-(1-phenyl-ethyl)-2-[(pyridin-4-ylmethyl)-amino]-propionamide]"

# Same assay, conditions: Table 5; [125I]Bolton-Hunter substance P displacement, human IM9 cells; read-out: IC50 (nM) hNK1
row,SMILES,IC50
1,CSc1ccc(CNC(Cc2c[nH]c3ccccc23)C(=O)NC(C)c2ccccc2)cc1 (stereo not drawn) [compound 383],252 nM
2,CC(NC(=O)C(Cc1c[nH]c2ccccc12)NCc1ccsc1)c1ccccc1 (stereo not drawn) [compound 404],2390 nM

# Other lines, results leading:
row,IC50,SMILES
1,165 nM,CCCc1nc(-n2cccc2)c(CNC(Cc2c[nH]c3ccccc23)C(=O)NC(C)c2ccccc2)[nH]1 (stereo not drawn) [compound 375]
2,> 10000 nM,CC(NC(=O)C(Cc1c[nH]c2ccccc12)NCC(=Cc1ccccc1)c1ccccc1)c1ccccc1 (stereo not drawn) [compound 376]
3,240 nM,CC(NC(=O)C(Cc1c[nH]c2ccccc12)NCc1ccc2c(c1)OCO2)c1ccccc1 (stereo not drawn) [compound 386]

# Same assay, conditions: human NK1 receptor, IM9 cells, [125I]Bolton-Hunter substance P; read-out: IC50 (nM) hNK1
row,SMILES,IC50
1,"CC(Cc1c[nH]c2ccccc12)(NCc1cc2ccccc2o1)C(=O)NC(CO)c1ccccc1 (stereo not drawn) [compound 29, 2-[(Benzofuran-2-ylmethyl)-amino]-N-(2-hydroxy-1-phenyl-ethyl)-3-(1H-indol-3-yl)-2-methyl-propionamide]",7 nM
2,"CC(Cc1c[nH]c2ccccc12)(NCc1cc2ccccc2o1)C(=O)NCC1CCCCC1O (stereo not drawn) [compound 184, 2-[(Benzofuran-2-ylmethyl)-amino]-N-(2-hydroxy-cyclohexylmethyl)-3-(1H-indol-3-yl)-2-methyl-propionamide]",> 10000 nM
3,"CC(Cc1c[nH]c2ccccc12)(NCc1cc2ccccc2o1)C(=O)NCc1cc(F)ccc1F (stereo not drawn) [compound 139, 2-[(Benzofuran-2-ylmethyl)-amino]-N-(2,5-difluoro-benzyl)-3-(1H-indol-3-yl)-2-methyl-propionamide]",99 nM
4,"CC(NC(=O)C(C)(Cc1c[nH]c2ccccc12)NCc1cc2ccccc2o1)c1ccc(Cl)s1 (stereo not drawn) [compound 118, 2-[(Benzofuran-2-ylmethyl)-amino]-N-[1-(5-chloro-thiophen-2-yl)-ethyl]-3-(1H-indol-3-yl)-2-methyl-propionamide]",45 nM
5,"CC1CCC(C)N1CCCCNC(=O)C(C)(Cc1c[nH]c2ccccc12)NCc1cc2ccccc2o1 (stereo not drawn) [compound 94, 2-[(Benzofuran-2-ylmethyl)-amino]-N-[4-(2,5-dimethyl-pyrrolidin-1-yl)-butyl]-3-(1H-indol-3-yl)-2-methyl-propionamide]",> 10000 nM
6,"CC(Cc1c[nH]cn1)NC(=O)C(C)(Cc1c[nH]c2ccccc12)NCc1cc2ccccc2o1 (stereo not drawn) [compound 90, 2-[(Benzofuran-2-ylmethyl)-amino]-N-[2-(1H-imidazol-4-yl)-1-methyl-ethyl]-3-(1H-indol-3-yl)-2-methyl-propionamide]",> 10000 nM

# The next lines start with the values.
row,IC50,SMILES
1,463 nM,"CC(Cc1c[nH]c2ccccc12)(NCc1cc2ccccc2o1)C(=O)NC1Cc2ccccc2C1 (stereo not drawn) [compound 113, 2-[(Benzofuran-2-ylmethyl)-amino]-N-indan-2-yl-3-(1H-indol-3-yl)-2-methyl-propionamide]"
2,1060 nM,"CC(NC(=O)C(C)(Cc1c[nH]c2ccccc12)NCc1cc2ccccc2o1)c1cccc(N(C)C)c1 (stereo not drawn) [compound 40, 2-[(Benzofuran-2-ylmethyl)-amino)-N-[1-(3-dimethylamino-phenyl)-ethyl]-3-(1H-indol-3-yl)-2-methyl-propionamide]"
3,> 10000 nM,"CC(Cc1c[nH]c2ccccc12)(NCc1cc2ccccc2o1)C(=O)NCC(CC(=O)O)c1ccccc1 (stereo not drawn) [compound 152, 4-[2-[(Benzofuran-2-ylmethyl)-amino]-3-(1H-indol-3-yl)-2-methyl-propionylamino]-3-phenyl-butyric acid]"
4,913 nM,"CC(Cc1c[nH]c2ccccc12)(NCc1cc2ccccc2o1)C(=O)NCCc1ccccn1 (stereo not drawn) [compound 45, 2-[(Benzofuran-2-ylmethyl)-amino]-3-(1H-indol-3-yl)-2-methyl-N-(2-pyridin-2-yl-ethyl)-propionamide]"
5,1130 nM,"CC(Cc1c[nH]c2ccccc12)(NCc1cc2ccccc2o1)C(=O)NCc1ccccc1Cl (stereo not drawn) [compound 189, 2-((Benzofuran-2-ylmethyl)-amino]-N-(2-chloro-benzyl)-3-(1H-indol-3-yl)-2-methyl-propionamide]"
6,3440 nM,"CC(Cc1c[nH]c2ccccc12)(NCc1cc2ccccc2o1)C(=O)NCc1ccc(OC(F)(F)F)cc1 (stereo not drawn) [compound 66, 2-[(Benzofuran-2-ylmethyl)-amino]-3-(1H-indol-3-yl)-2-methyl-N-(4-trifluoromethoxy-benzyl)-propionamide]"
7,> 10000 nM,"CC(Cc1c[nH]c2ccccc12)(NCc1cc2ccccc2o1)C(=O)NCC(CC(=O)O)c1ccc(Cl)cc1 (stereo not drawn) [compound 84, 4-[2-[(Benzofuran-2-ylmethyl)-amino]-3-(1H-indol-3-yl)-2-methyl-propionylamino]-3-(4-chloro-phenyl)-butyric acid]"
8,1140 nM,"CC(NC(=O)C(C)(Cc1c[nH]c2ccccc12)NCc1cc2ccccc2o1)C(C)(C)C (stereo not drawn) [compound 82, 2-[(Benzofuran-2-ylmethyl)-amino]-3(1H-indol-3-yl)-2-methyl-N-(1,2,2-trimethyl-propyl)-propionamide]"
